Results on three compounds are retold here after article PMC10960705 (Cell chemical biology, 2023).

Holding throughout (assay type): cell-based
One experiment concerns the target VLDLR (Homo sapiens, UniProt P98155). As to the kind of experiment: TMT-ABPP competition with DBIA probe in lysate.
A further experiment addresses KRAS^G12C (Homo sapiens, UniProt P01116, G12C). As to the kind of experiment: TMT-ABPP competition with DBIA probe in HCC44 lysate, […], […] hr.
Experiment [1] addresses peptidyl-prolyl cis/trans isomerase PIN1 (Homo sapiens, UniProt Q13526). As to the kind of experiment: TMT-ABPP dose-response competition with DBIA probe in lysate.

Chain of peptidyl-prolyl cis/trans isomerase PIN1 (Q13526 whole entry): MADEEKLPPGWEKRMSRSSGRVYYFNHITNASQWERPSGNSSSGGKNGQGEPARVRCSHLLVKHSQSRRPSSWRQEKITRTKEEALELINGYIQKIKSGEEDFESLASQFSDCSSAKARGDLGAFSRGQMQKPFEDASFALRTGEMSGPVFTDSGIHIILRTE

Regarding `C=CC(=O)N1CCCC(n2ccnn2)CC1` (stereo not drawn) [AC19, 1-(4-(1H-1,2,3-triazol-1-yl)azepan-1-yl)prop-2-en-1-one], the “TMT-ABPP competition with DBIA probe in lysate” value at VLDLR was “reside in their respective EGF-like domains and were all exclusively and significantly engaged by AC19”.

As to `C=CC(=O)N1CCN(c2ncnc3c(F)c(-c4c(O)cccc4F)c(Cl)cc23)CC1` [ARS-1620], on KRAS^G12C, the “TMT-ABPP competition with DBIA probe in HCC44 lysate, 50 μM, 1 hr” value is reported as 2.7 competition ratio (CR) at 50 μM.

For the compound `CC(C)(C)CN(C(=O)CCl)C1CCS(=O)(=O)C1` (stereo not drawn) [Sulfopin], the “TMT-ABPP dose-response competition with DBIA probe in lysate” value in experiment [1] was “Sulfopin is the most potent among the four whereas CL41 is the least”.
